Where two headings read alike, the source gives them in different places.
What was measured:
GABAA receptor α1β2γ2 = target: T1, GABAA receptor α1β2γ2 (Homo sapiens, UniProt P14867+P47870); test: Patch clamp electrophysiology, Qpatch in Ltk cells; format: cell-based; conditions: 10 μM test article, GABA EC20 2 μM, read-out: GABA (α1β2γ2) Qpatch in Ltk, % efficacy at 10 μM
T1 construct: expressed in transfected cells
Outline: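 Whole-cell voltage clamp at −80 mV, room temperature: α1β2γ2 stably expressed in Ltk cells (QPatch), α4β3δ transiently in CHO cells (manual patch). Compound at 0.01–10 μM pre-applied 30 s, then 2 μM GABA (EC20) for 2 s. Potentiation = peak current with compound / GABA alone × 100.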

GABAA-R = target: T2, GABAA-R (Homo sapiens, UniProt P14867+P47870); test: Electrophysiological evaluation at GABAA-R (Table 2); format: cell-based
T2 sequence (P14867 1-456): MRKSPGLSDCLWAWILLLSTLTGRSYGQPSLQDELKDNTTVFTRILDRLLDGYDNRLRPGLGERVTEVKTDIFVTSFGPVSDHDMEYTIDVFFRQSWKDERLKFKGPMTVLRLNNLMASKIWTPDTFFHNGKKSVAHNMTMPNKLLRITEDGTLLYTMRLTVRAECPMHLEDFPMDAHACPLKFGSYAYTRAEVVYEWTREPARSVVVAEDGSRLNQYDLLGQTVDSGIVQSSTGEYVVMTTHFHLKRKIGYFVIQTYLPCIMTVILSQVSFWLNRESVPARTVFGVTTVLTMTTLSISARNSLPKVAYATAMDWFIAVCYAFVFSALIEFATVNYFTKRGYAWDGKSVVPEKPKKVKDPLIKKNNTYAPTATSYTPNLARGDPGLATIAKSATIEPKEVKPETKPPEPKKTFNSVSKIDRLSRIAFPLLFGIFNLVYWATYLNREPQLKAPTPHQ
T2 sequence (P47870 1-512): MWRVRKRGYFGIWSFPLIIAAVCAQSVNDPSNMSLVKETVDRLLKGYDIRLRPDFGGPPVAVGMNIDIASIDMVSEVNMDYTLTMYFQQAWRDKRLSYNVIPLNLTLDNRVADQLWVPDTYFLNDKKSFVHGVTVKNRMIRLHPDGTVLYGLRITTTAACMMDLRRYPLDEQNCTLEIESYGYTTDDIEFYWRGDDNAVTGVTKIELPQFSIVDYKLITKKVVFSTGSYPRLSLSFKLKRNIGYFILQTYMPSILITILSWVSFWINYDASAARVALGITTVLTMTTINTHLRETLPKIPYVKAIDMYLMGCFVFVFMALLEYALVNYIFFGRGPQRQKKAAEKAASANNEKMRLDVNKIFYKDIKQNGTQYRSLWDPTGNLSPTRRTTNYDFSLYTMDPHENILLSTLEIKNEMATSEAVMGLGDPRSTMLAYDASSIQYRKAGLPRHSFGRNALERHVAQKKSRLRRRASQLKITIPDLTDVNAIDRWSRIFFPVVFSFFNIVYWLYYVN
Procedure: Patch Clamp Electrophysiology of Recombinant α1β2γ2 and α4β3δ GABAA Receptors
Cellular electrophysiology is used to measure the pharmacological properties of our GABAA receptor modulators in heterologous cell systems. Each compound is tested for its ability to affect GABA mediated currents at a submaximal agonist dose (GABA EC20=2 μM). LTK cells are stably transfected with the α1β2γ2 subunits of the GABA receptor and CHO cells are transiently transfected with the α4β3δ subunits via the Lipofecatamine method. Cells were passaged at a confluence of about 50-80% and then seeded onto 35 mm sterile culture dishes containing 2 ml culture complete medium without antibiotics or antimycotics. Confluent clusters of cells are electrically coupled (Pritchett et al., Science, 1988, 242, 1306-1308.). Because responses in distant cells are not adequately voltage clamped and because of uncertainties about the extent of coupling (Verdoorn et al., Neuron 1990, 4, 919-928.), cells were cultivated at a density that enables the recording of single cells (without visible connections to other cells).
Whole cell currents were measured with HEKA EPC-10 amplifiers using PatchMaster software or by using the high throughput QPatch platform (Sophion). Bath solution for all experiments contained (in mM): NaCl 137 mM, KCl 4 mM, CaCl2 1.8 mM, MgCl2 1 mM, HEPES 10 mM, D-Glucose 10 mM, pH (NaOH) 7.4. In some cases 0.005% cremophor was also added. Intracellular (pipette) solution contained: KCl 130 mM, MgCl2 1 mM, Mg-ATP 5 mM, HEPES 10 mM, EGTA 5 mM, pH 7.2. During experiments, cells and solutions were maintained at room temperature (19° C.-30° C.). For manual patch clamp recordings, cell culture dishes were placed on the dish holder of the microscope and continuously perfused (1 ml/min) with bath solution. After formation of a Gigaohm seal between the patch electrodes and the cell (pipette resistance range: 2.5 MΩ-6.0 MΩ; seal resistance range: >1 GΩ) the cell membrane across the pipette tip was ruptured to assure electrical access to the cell interior (whole-cell patch-configuration). For experiments using the QPatch system, cells were transferred as suspension to the QPatch system in the bath solution and automated whole cell recordings were performed.
Cells were voltage clamped at a holding potential of −80 mV. For the analysis of test articles, GABA receptors were stimulated by 2 μM GABA after sequential pre-incubation of increasing concentrations of the test article. Pre-incubation duration was 30 s and the duration of the GABA stimulus was 2 s. Test articles were dissolved in DMSO to form stock solutions (10 mM). Test articles were diluted to 0.01, 0.1, 1, and 10 μM in bath solution. All concentrations of test articles were tested on each cell. The relative percentage potentiation was defined as the peak amplitude in response to GABA EC20 in the presence of the test article divided by the peak amplitude in response to GABA EC20 alone, multiplied by 100.

[1] = GABAA-R electrophysiology, read-out: EC50

T1 sequence (P18507 40-475 partner, one chain of several): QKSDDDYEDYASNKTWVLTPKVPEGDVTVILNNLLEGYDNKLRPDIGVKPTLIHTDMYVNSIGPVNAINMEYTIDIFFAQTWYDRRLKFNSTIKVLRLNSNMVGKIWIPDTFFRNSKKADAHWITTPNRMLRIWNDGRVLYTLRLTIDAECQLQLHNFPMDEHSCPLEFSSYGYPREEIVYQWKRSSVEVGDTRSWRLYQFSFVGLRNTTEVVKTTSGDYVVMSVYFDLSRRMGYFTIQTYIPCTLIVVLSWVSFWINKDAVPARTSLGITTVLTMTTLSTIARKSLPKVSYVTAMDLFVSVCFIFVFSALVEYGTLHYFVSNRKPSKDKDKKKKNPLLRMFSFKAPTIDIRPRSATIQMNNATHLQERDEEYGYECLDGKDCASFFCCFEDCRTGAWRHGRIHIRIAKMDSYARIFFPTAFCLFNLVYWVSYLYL

SMILES	Emax at 10 µM (GABAA receptor α1β2γ2)	Emax (GABAA-R; GABAA-R electrophysiology)	EC50 (GABAA-R; [1])	EC50 (GABAA-R)
C[C@@]1(O)CC[C@H]2[C@H](CC[C@@H]3[C@@H]2CC[C@]2(C)[C@@H](C(=O)Cn4cccn4)CC[C@@H]32)C1 [SA-13]	100 to 500%	0 to 500%	0.5 to 1 µM	–
Cc1cnn(CC(=O)[C@H]2CC[C@H]3[C@@H]4CC[C@@H]5C[C@](C)(O)CC[C@@H]5[C@H]4CC[C@]23C)c1 [SA-6]	100 to 500%	0 to 500%	0.1 to 0.5 µM	–
C[C@@]1(O)CC[C@H]2[C@H](CC[C@@H]3[C@@H]2CC[C@]2(C)[C@@H](C(=O)Cn4cc(C#N)cn4)CC[C@@H]32)C1 [SA-4]	100 to 500%	0 to 500%	–	0.1 to 0.5 µM

Source: patent US12201640B2, “19-nor C3,3-disubstituted C21-n-pyrazolyl steroids and methods of use thereof” (Sage Therapeutics, Inc., priority 2013, dated 2025)
